# Measurements from patent US12582722B2, “Bifunctional compounds for degrading BTK via ubiquitin proteosome pathway” (NURIX THERAPEUTICS, INC., priority 2019, dated 2026).
# Biological target: T1, BTK (Homo sapiens, UniProt Q06187)
# T1 construct: endogenous in cells; host or cells: Ramos (ATCC CRL-1596)
# Assay: Cellular BTK HTRF Assay (BTK degradation in Ramos cells)
# Format: cell-based
# Conditions: four hours incubation, 37° C., BTK levels relative to DMSO-treated cells
# Method: Ramos (CRL-1596) cells were obtained from American Type Culture Collection and were grown in RPMI-1640 media (ATCC, 30-2001) supplemented with 10% heat-inactivated FBS (Corning Premium Fetal Bovine Serum from Fisher, MT35015CV).
# Compounds of the present invention were added to 50,000 Ramos cells in round-bottom 96 well plates with a final DMSO concentration of […] and were incubated at 37° C., 5% CO2 for four hours. BTK levels were determined using Cisbio Total-BTK HTRF ([…] Time-Resolved Fluorescence) kit (63ADK064PEG) according to manufacturer's protocol. Briefly, cells were incubated in 1× supplied lysis buffer for 30 minutes. In an opaque white low volume 96 well plate (Cisbio, 66PL96005), cell lysate was combined with two different specific BTK antibodies, one conjugated with Eu^3+-Cryptate FRET donor and one conjugated with d2 FRET acceptor. Assay controls include wells containing cell lysate with only the Eu^3+-Cryptate FRET donor antibody and wells containing both HTRF antibodies and lysis buffer without cells or control lysate provided by Cisbio. HTRF ratio was calculated as (acceptor signal at 665 nm/donor signal at 620 nm)×10^4. Background HTRF levels were determined from the control well containing the donor, but no acceptor, antibody. Background HTRF levels were subtracted from all samples. Readouts were reported as HTRF levels relative to HTRF levels of DMSO-treated cells. Four-parameter non-linear regressions were performed in GraphPad Prism 7.02 to obtain DC50 values. DC50 values are provided in Table 3, wherein A<7.5 nM, 7.5 nM≤B≤50 nM, and 50 nM<C<500 nM.
# T1 sequence (Q06187 whole entry): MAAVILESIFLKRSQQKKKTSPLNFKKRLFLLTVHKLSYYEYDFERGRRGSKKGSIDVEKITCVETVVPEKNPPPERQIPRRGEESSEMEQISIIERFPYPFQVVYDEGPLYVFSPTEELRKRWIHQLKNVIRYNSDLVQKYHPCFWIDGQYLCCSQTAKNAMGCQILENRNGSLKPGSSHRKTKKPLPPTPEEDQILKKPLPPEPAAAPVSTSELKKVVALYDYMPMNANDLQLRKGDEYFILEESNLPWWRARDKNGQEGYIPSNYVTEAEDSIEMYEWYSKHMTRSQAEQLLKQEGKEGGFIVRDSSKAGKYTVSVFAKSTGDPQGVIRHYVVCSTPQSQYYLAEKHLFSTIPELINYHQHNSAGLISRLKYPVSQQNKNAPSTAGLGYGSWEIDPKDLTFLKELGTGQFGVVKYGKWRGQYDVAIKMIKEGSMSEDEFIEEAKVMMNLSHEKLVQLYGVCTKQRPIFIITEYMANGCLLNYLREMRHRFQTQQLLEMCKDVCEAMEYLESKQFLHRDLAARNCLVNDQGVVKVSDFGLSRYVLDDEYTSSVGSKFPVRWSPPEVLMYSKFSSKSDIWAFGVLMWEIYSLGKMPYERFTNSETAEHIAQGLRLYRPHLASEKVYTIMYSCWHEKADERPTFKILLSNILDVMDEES
row,SMILES,DC50 [nM]
1,"CS(=O)(=O)c1ccc(Nc2nc(N3CCC[C@@H](NC(=O)C4CCN(CC5CCN(c6ccc7c(c6)C(=O)N(C6CCC(=O)NC6=O)C7=O)CC5)CC4)C3)cnc2C(N)=O)cc1 (stereo partly drawn) [Compound 20, 5-[(3R)-3-[1-({1-[2-(2,6-dioxopiperidin-3-yl)-1,3-dioxoisoindol-5-yl]piperidin-4-yl}methyl)piperidine-4-amido]piperidin-1-yl]-3-[(4-methanesulfonylphenyl)amino]pyrazine-2-carboxamide]",< 7.5
2,"Cn1cc(Nc2nc(N3CCC[C@@H](NC(=O)C4CCN(CC5CCN(c6ccc7c(c6)C(=O)N(C6CCC(=O)NC6=O)C7=O)CC5)CC4)C3)cnc2C(N)=O)cn1 (stereo partly drawn) [Compound 21, 5-((3R)-3-(1-((1-(2-(2,6-dioxopiperidin-3-yl)-1,3-dioxoisoindolin-5-yl)piperidin-4-yl)methyl)piperidine-4-carboxamido)piperidin-1-yl)-3-((1-methyl-1H-pyrazol-4-yl)amino)pyrazine-2-carboxamide]",< 7.5
3,"Cc1cc(Nc2nc(N3CCC[C@@H](NC(=O)C4CCN(CC5CCN(c6ccc7c(c6)C(=O)N(C6CCC(=O)NC6=O)C7=O)CC5)CC4)C3)cnc2C(N)=O)sn1 (stereo partly drawn) [Compound 22, 5-[(3R)-3-[1-({1-[2-(2,6-dioxopiperidin-3-yl)-1,3-dioxoisoindol-5-yl]piperidin-4-yl}methyl)piperidine-4-amido]piperidin-1-yl]-3-[(3-methyl-1,2-thiazol-5-yl)amino]pyrazine-2-carboxamide]",< 7.5
4,"Cc1cc(Nc2nc(N3CCC[C@@H](NC(=O)N4CCN(CC5CCN(c6ccc7c(c6)C(=O)N(C6CCC(=O)NC6=O)C7=O)CC5)CC4)C3)cnc2C(N)=O)sn1 (stereo partly drawn) [Compound 23, 5-[(3R)-3-[4-({1-[2-(2,6-dioxopiperidin-3-yl)-1,3-dioxoisoindol-5-yl]piperidin-4-yl}methyl)piperazine-1-carbonylamino]piperidin-1-yl]-3-[(3-methyl-1,2-thiazol-5-yl)amino]pyrazine-2-carboxamide]",< 7.5
5,"CS(=O)(=O)c1ccc(Nc2nc(N3CCC[C@@H](NC(=O)N4CC5(C4)CN(c4ccc6c(c4)C(=O)N(C4CCC(=O)NC4=O)C6=O)C5)C3)cnc2C(N)=O)cc1 (stereo partly drawn) [Compound 24, N-[(3R)-1-{5-carbamoyl-6-[(4-methanesulfonylphenyl)amino]pyrazine-2-yl}piperidin-3-yl]-6-[2-(2,6-dioxopiperidin-3-yl)-1,3-dioxoisoindol-5-yl]-2,6-diazaspiro[3.3]heptane-2-carboxamide]",7.5 to 50
6,"CS(=O)(=O)c1ccc(Nc2nc(N3CCC[C@@H](NC(=O)N4CC5(CN(Cc6ccc7c(c6)C(=O)N(C6CCC(=O)NC6=O)C7=O)C5)C4)C3)cnc2C(N)=O)cc1 (stereo partly drawn) [Compound 25, N-[(3R)-1-{5-carbamoyl-6-[(4-methanesulfonylphenyl)amino]pyrazin-2-yl}piperidin-3-yl]-6-{[2-(2,6-dioxopiperidin-3-yl)-1,3-dioxoisoindol-5-yl]methyl}-2,6-diazaspiro[3.3]heptane-2-carboxamide]",7.5 to 50
7,"CS(=O)(=O)c1ccc(Nc2nc(N3CCC[C@@H](NC(=O)N4CCN(Cc5ccc6c(c5)C(=O)N(C5CCC(=O)NC5=O)C6=O)CC4)C3)cnc2C(N)=O)cc1 (stereo partly drawn) [Compound 26, 5-((3R)-3-(4-((2-(2,6-dioxopiperidin-3-yl)-1,3-dioxoisoindolin-5-yl)methyl)piperazine-1-carboxamido)piperidin-1-yl)-3-((4-(methylsulfonyl)phenyl)amino)pyrazine-2-carboxamide]",50 to 500
8,"Cc1cc(Nc2nc(N3CCC[C@@H](NC(=O)N4CCN(c5ccc6c(c5)C(=O)N(C5CCC(=O)NC5=O)C6=O)CC4)C3)cnc2C(N)=O)sn1 (stereo partly drawn) [Compound 27, 5-[(3R)-3-{4-[2-(2,6-dioxopiperidin-3-yl)-1,3-dioxoisoindol-5-yl]piperazine-1-carbonylamino}piperidin-1-yl]-3-[(3-methyl-1,2-thiazol-5-yl)amino]pyrazine-2-carboxamide]",50 to 500
9,"CS(=O)(=O)c1ccc(Nc2nc(N3CCC[C@@H](NC(=O)N4CCC5(CC4)CN(c4ccc6c(c4)C(=O)N(C4CCC(=O)NC4=O)C6=O)C5)C3)cnc2C(N)=O)cc1 (stereo partly drawn) [Compound 28, N—((R)-1-(5-carbamoyl-6-((4-(methylsulfonyl)phenyl)amino)pyrazine-2-yl)piperidin-3-yl)-2-(2-(2,6-dioxopiperidin-3-yl)-1,3-dioxoisoindolin-5-yl)-2,7-diazaspiro[3.5]nonane-7-carboxamide]",7.5 to 50
10,"CS(=O)(=O)c1ccc(Nc2nc(N3CCC[C@@H](NC(=O)N4CCC5(CC4)CN(Cc4ccc6c(c4)C(=O)N(C4CCC(=O)NC4=O)C6=O)C5)C3)cnc2C(N)=O)cc1 (stereo partly drawn) [Compound 29, N-[(3R)-1-{5-carbamoyl-6-[(4-methanesulfonylphenyl)amino]pyrazin-2-yl}piperidin-3-yl]-2-{[2-(2,6-dioxopiperidin-3-yl)-1,3-dioxoisoindol-5-yl]methyl}-2,7-diazaspiro[3.5]nonane-7-carboxamide]",< 7.5
11,"CS(=O)(=O)c1ccc(Nc2nc(N3CCC[C@@H](NC(=O)C4CN(CC5CCN(c6ccc7c(c6)C(=O)N(C6CCC(=O)NC6=O)C7=O)CC5)C4)C3)cnc2C(N)=O)cc1 (stereo partly drawn) [Compound 30, 5-((3R)-3-(1-((1-(2-(2,6-dioxopiperidin-3-yl)-1,3-dioxoisoindolin-5-yl)piperidin-4-yl)methyl)azetidine-3-carboxamido)piperidin-1-yl)-3-((4-(methylsulfonyl)phenyl)amino)pyrazine-2-carboxamide]",7.5 to 50
12,"CS(=O)(=O)c1ccc(Nc2nc(N3CCC[C@@H](NC(=O)C4CCC5(CC4)CCN(Cc4ccc6c(c4)C(=O)N(C4CCC(=O)NC4=O)C6=O)CC5)C3)cnc2C(N)=O)cc1 (stereo partly drawn) [Compound 31, N—((R)-1-(5-carbamoyl-6-((4-(methylsulfonyl)phenyl)amino)pyrazin-2-yl)piperidin-3-yl)-3-((2-(2,6-dioxopiperidin-3-yl)-1,3-dioxoisoindolin-5-yl)methyl)-3-azaspiro[5.5]undecane-9-carboxamide]",< 7.5
13,"CS(=O)(=O)c1ccc(Nc2nc(N3CCC[C@@H](NC(=O)C4CC5(C4)CN(Cc4ccc6c(c4)C(=O)N(C4CCC(=O)NC4=O)C6=O)C5)C3)cnc2C(N)=O)cc1 (stereo partly drawn) [Compound 32, N—((R)-1-(5-carbamoyl-6-((4-(methylsulfonyl)phenyl)amino)pyrazin-2-yl)piperidin-3-yl)-2-((2-(2,6-dioxopiperidin-3-yl)-1,3-dioxoisoindolin-5-yl)methyl)-2-azaspiro[3.3]heptane-6-carboxamide]",7.5 to 50
14,"CS(=O)(=O)c1ccc(Nc2nc(N3CCC[C@@H](NC(=O)[C@H]4[C@@H]5CN(CC6CCN(c7ccc8c(c7)C(=O)N(C7CCC(=O)NC7=O)C8=O)CC6)C[C@@H]54)C3)cnc2C(N)=O)cc1 (stereo partly drawn) [Compound 33, (1R,5S,6r)-N—((R)-1-(5-carbamoyl-6-((4-(methylsulfonyl)phenyl)amino)pyrazin-2-yl)piperidin-3-yl)-3-((1-(2-(2,6-dioxopiperidin-3-yl)-1,3-dioxoisoindolin-5-yl)piperidin-4-yl)methyl)-3-azabicyclo[3.1.0]hexane-6-carboxamide]",< 7.5
15,"CS(=O)(=O)c1ccc(Nc2nc(N3CCC[C@@H](NC(=O)C4CC5CCC(C4)N5CC4CCN(c5ccc6c(c5)C(=O)N(C5CCC(=O)NC5=O)C6=O)CC4)C3)cnc2C(N)=O)cc1 (stereo partly drawn) [Compound 34, (1R,3s,5S)—N—((R)-1-(5-carbamoyl-6-((4-(methylsulfonyl)phenyl)amino)pyrazin-2-yl)piperidin-3-yl)-8-((1-(2-(2,6-dioxopiperidin-3-yl)-1,3-dioxoisoindolin-5-yl)piperidin-4-yl)methyl)-8-azabicyclo[3.2.1]octane-3-carboxamide]",7.5 to 50
16,"CS(=O)(=O)c1ccc(Nc2nc(N3CCC[C@@H](NC(=O)[C@H]4[C@@H]5CN(C6CCN(c7ccc8c(c7)C(=O)N(C7CCC(=O)NC7=O)C8=O)CC6)C[C@@H]54)C3)cnc2C(N)=O)cc1 (stereo partly drawn) [Compound 35, (1R,5S,6r)-N—((R)-1-(5-carbamoyl-6-((4-(methylsulfonyl)phenyl)amino)pyrazin-2-yl)piperidin-3-yl)-3-(1-(2-(2,6-dioxopiperidin-3-yl)-1,3-dioxoisoindolin-5-yl)piperidin-4-yl)-3-azabicyclo[3.1.0]hexane-6-carboxamide]",7.5 to 50
17,"CS(=O)(=O)c1ccc(Nc2nc(N3CCC[C@@H](NC(=O)C4CCC5(CC4)CCN(c4ccc6c(c4)C(=O)N(C4CCC(=O)NC4=O)C6=O)CC5)C3)cnc2C(N)=O)cc1 (stereo partly drawn) [Compound 36, N-[(3R)-1-{5-carbamoyl-6-[(4-methanesulfonylphenyl)amino]pyrazin-2-yl}piperidin-3-yl]-3-[2-(2,6-dioxopiperidin-3-yl)-1,3-dioxoisoindol-5-yl]-3-azaspiro[5.5]undecane-9-carboxamide]",< 7.5
18,"Cc1cc(Nc2nc(N3CCC[C@@H](NC(=O)C4CCN(C5CN(Cc6ccc7c(c6)C(=O)N(C6CCC(=O)NC6=O)C7=O)C5)CC4)C3)cnc2C(N)=O)sn1 (stereo partly drawn) [Compound 37, 5-[(3R)-3-[1-(1-{[2-(2,6-dioxopiperidin-3-yl)-1,3-dioxoisoindol-5-yl]methyl}azetidin-3-yl)piperidine-4-amido]piperidin-1-yl]-3-[(3-methyl-1,2-thiazol-5-yl)amino]pyrazine-2-carboxamide]",< 7.5
